Results reported in PMC10873021 (Biochemistry, 2023).

Experiments:
PglJ Cc 33237 [1] = details: 25 μM UDP-sugar; 20 μM Und-PP-diNAcBac-GalNAc; 5 mM MgCl2; pH 7.5; varying enzyme
PglJ Cj 11168 = PglJ Cj 11168 (Campylobacter jejuni, UniProt Q0P9C7); test: UDP-Glo glycosyltransferase assay, UDP-sugar screen; format: biochemical; details: 10 nM enzyme; 25 μM UDP-sugar; 20 μM Und-PP-diNAcBac-GalNAc; 5 mM MgCl2; pH 7.5
PglJ Cc 33237 [2] = details: 1 mM ligand; 10 mM HEPES pH 7.5; 150 mM NaCl; 5% glycerol; 2 mM DTT; 0.03% DDM
PglJ Cc 13826 [3] = details: 1 mM ligand; 10 mM HEPES pH 7.5; 150 mM NaCl; 5% glycerol; 2 mM DTT; 0.03% DDM
PglJ Cc 13826 [4] = details: 20 μM Und-PP-diNAcBac-GalNAc; 0.1 nM enzyme; 5 mM MgCl2; 0.1% Triton X-100; 50 mM HEPES pH 7.5; 100 mM NaCl
PglJ Cc 33237 [5] = details: 20 μM Und-PP-diNAcBac-GalNAc; 0.1 nM enzyme; 5 mM MgCl2; 0.1% Triton X-100; 50 mM HEPES pH 7.5; 100 mM NaCl

| SMILES | dTm (PglJ Cc 33237 [2]) | dTm (PglJ Cc 13826 [3]) | also measured |
| --- | --- | --- | --- |
| CC(=O)N[C@H]1[C@@H](OP(=O)(O)OP(=O)(O)OC[C@H]2O[C@@H](n3ccc(=O)[nH]c3=O)[C@H](O)[C@@H]2O)O[C@H](CO)[C@H](O)[C@@H]1O [UDP-GalNAc] | – | – | UDP-Glo glycosyltransferase assay, UDP-sugar screen (PglJ Cc 33237 [1]): this variant now transfers GalNAc from UDP-GalNAc onto the growing Und-PP-glycan; UDP-Glo glycosyltransferase assay, UDP-sugar screen (PglJ Cj 11168): At the same concentration, the PglJ from C. jejuni preferred UDP-GalNAc |
| O=c1ccn([C@@H]2O[C@H](COP(=O)(O)OP(=O)(O)O)[C@@H](O)[C@H]2O)c(=O)[nH]1 [UDP] | Significant stabilization was observed with UDP, the nucleotide product of the glycosyltransferase reaction | Significant stabilization was observed with UDP, the nucleotide product of the glycosyltransferase reaction | – |
| CC(=O)N[C@H]1[C@@H](OP(=O)(O)OP(=O)(O)OC[C@H]2O[C@@H](n3ccc(=O)[nH]c3=O)[C@H](O)[C@@H]2O)O[C@H](C(=O)O)[C@H](O)[C@@H]1O [UDP-GalNAcA] | – | – | Km (PglJ Cc 13826 [4]): 3.8 ± 1.9 µM; Km (PglJ Cc 33237 [5]): 7.4 ± 2.5 µM |
| CC(=O)N[C@H]1[C@@H](OP(=O)(O)OP(=O)(O)OC[C@H]2O[C@@H](n3ccc(=O)[nH]c3=O)[C@H](O)[C@@H]2O)O[C@H](C(=O)O)[C@@H](O)[C@@H]1O [UDP-GlcNAcA] | (UDP-GalNAcA and UDP-GlcNAcA) stabilized the PglJ enzymes from both strains of C. concisus studied | (UDP-GalNAcA and UDP-GlcNAcA) stabilized the PglJ enzymes from both strains of C. concisus studied | – |
